From patent US11618746B2, “Inhibitors of APOL1 and methods of using same” (Vertex Pharmaceuticals Incorporated, priority 2018, dated 2023)

biological target: T1, G1 APOL1 (Homo sapiens, UniProt O14791, I384M/S342G); test: Acute APOL1 Thallium Assay with inducible stable clones of HEK 293 cells; assay type: cell-based; conditions: HEK T-Rex tetracycline-inducible cells expressing G1 APOL1 (clone G1 DC3.25); inhibition of thallium flux rate
T1 construct: expressed in transfected cells
T1 sequence (O14791 28-398 S342G/I384M): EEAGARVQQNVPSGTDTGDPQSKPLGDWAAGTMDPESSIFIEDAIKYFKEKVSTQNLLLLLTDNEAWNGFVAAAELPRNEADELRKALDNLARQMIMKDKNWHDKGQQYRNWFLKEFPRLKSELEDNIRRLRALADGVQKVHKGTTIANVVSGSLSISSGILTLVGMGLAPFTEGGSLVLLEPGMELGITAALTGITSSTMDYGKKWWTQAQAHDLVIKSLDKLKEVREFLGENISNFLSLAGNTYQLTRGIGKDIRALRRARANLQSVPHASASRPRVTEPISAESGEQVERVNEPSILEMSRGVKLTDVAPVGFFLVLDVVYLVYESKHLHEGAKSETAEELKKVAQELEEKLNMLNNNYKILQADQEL
Text: Acute APOL1 Thallium Assay with Inducible Stable Clones of HEK 293 Cells
Apolipoprotein L1 (APOL1) proteins form potassium-permeable cation pores in the plasma membrane. APOL1 risk variants (G1 and G2) induce greater potassium flux than G0 in HEK293 cells. This assay exploits the permeability of thallium (T1+) through ligand-gated potassium channels. The dye produces a bright fluorescent signal upon binding to T1+ conducted through potassium channels. The intensity of the T1+ signal is proportional to the number of potassium channels in the open state. Therefore, it provides a functional indication of the potassium channel activities. During the initial dye-loading step, the T1+ indicator dye as an acetoxymethyl (AM) ester enters the cells through passive diffusion. Cytoplasm esterases cleave the AM ester and relieve its active thallium-sensitive form. The cells are then stimulated with T1+. The increase of fluorescence in the assay represents the influx of T1+ into the cell specifically through the potassium channel (i.e. through APOL1 pores), providing a functional measurement of potassium channel/pore activity. The Thallium assay is conducted with cells expressing G1 APOL1.
APOL1 Cell Line (HEK T-Rex Stable Inducible Cell Line) • HEK T-Rex System • Tetracycline (Tet) inducible mammalian expression system. • Stably express the Tet repressor to regulate transcription. • Expression under the full-length CMV promoter. • APOL1 stable inducible cell line Clone used: G1 DC3.25
Tissue Culture Media • Cell Culture Medium • DMEM +10% FBS +P/S +5 μg/mL blasticidin+1 μg/mL puromycin. • 500 mL DMEM +55 mL FBS +5 mL P/S +280 μL blasticidin S HCl (10 mg/mL)+56 μL puromycin (10 mg/mL). • Cell Assay Medium • DMEM with 2% FBS+pen strep.
Instruments and Equipment • Nuaire cell culture hood, Cat. No. 540-600 • 37° C./5% CO2 incubator link to robotic arm, Liconic: STX110 • Molecular Devices FLIPR^Tetra High throughput cellular screening system, Cat. No. FT0324, Molecular Devices • ThermoFisher MultiDrop 384, Cat. No. 5840300 • Biotek Microfill, Cat. No. ASF1000A-4145 • BioRad TC10 cell counter, Cat. No. 145-0010 Assay Procedures
Cells Scaled Up from Frozen Vials • APOL1 G1 3.25 (HEK293 T-Rex) frozen vials: 5 million cells per vial • Step 1, Day 1: Defrost frozen vial into T-225. • Step 2, Day 5: (when 85% confluent): Split one T-225 at 3×10^6 cells per flask. • Step 3, Day 8: Splits cells to set up for the assay plates as described below.
T-Rex APOL1 HEK cells are split twice per week to keep the confluence state below 85% of the culture flask surface area. Cells can be kept until passage 25. • Cell Culture Medium • DMEM high glucose +10% FBS, +P/S, +5 μg/mL blasticidin, +1 μg/mL puromycin. • 500 mL DMEM, +55 mL FBS, +5 mL P/S, +280 μL blasicidin 10 mg/mL, +56 μL Puromycin 10 mg/mL. • Assay Media • Opti-MEM reduced serum medium from Invitrogen.
Preparation of Cell Assay Plates • Culture medium is removed from the x cm^2 T-flask by aspiration. • The cell monolayer is rinsed with PBS 1× at room temperature. PBS is removed by aspiration. • Cells are trypsinized using Trypsin. • The flasks are incubated at room temperature for 2-3 minutes. • Complete DMEM medium is then added. Cell suspension is then transferred to a 50 mL Falcon polypropylene tube. • Cells are then counted using a Biorad TC10 cell counter and the required amount of cells are centrifuged at 1200 RPM for 5 minutes. Required amount is 1.3×10^6 cells/mL APOL1 T-Rex HEK cells. • The pellet is suspended in the assay medium. • Using the MultiDrop, add 20 μL to each well (corresponds to 26000 cells total per well) of a 384-well black, transparent, flat bottom Poly-D coated plate. • Tetracycline as prepared in the following section is added to the cells before plating to induce APOL1 expression. • Plates are left at room temperature for 20 to 30 minutes before incubation at 37° C. and 5% CO2. […]

Row | SMILES | IC50 [nM]
1 | CC(CC(=O)N[C@H]1CCNC1=O)c1c(-c2ccc(F)cc2)[nH]c2c(F)cc(F)cc12 (mixture of isomers) [Compound 96, 3-[5,7-difluoro-2-(4-fluorophenyl)-1H-indol-3-yl]-N-[(3S)-2-oxopyrrolidin-3-yl]butanamide] | > 1000
2 | CC(CC(=O)N[C@@H]1C(=O)NC[C@H]1O)c1c(-c2ccc(F)cc2)[nH]c2c(F)cc(F)cc12 (mixture of isomers) [Compound 97, 3-[5,7-difluoro-2-(4-fluorophenyl)-1H-indol-3-yl]-N-[(3S,4R)-4-hydroxy-2-oxo-pyrrolidin-3-yl]butanamide] | > 1000
3 | O=C(CCc1c(-c2ccc(F)cc2)[nH]c2cc(O)ccc12)N[C@@H]1C(=O)NC[C@H]1O (stereo in doubt) [Compound 110, 3-[2-(4-fluorophenyl)-6-hydroxy-1H-indol-3-yl]-N-[(3S,4R)-4-hydroxy-2-oxo-pyrrolidin-3-yl]propanamide] | > 1000
4 | CC(=O)O[C@@H]1CNC(=O)[C@H]1NC(=O)CCc1c(-c2ccc(F)cc2)[nH]c2c(F)cc(F)cc12 [Compound 4, [(3R,4S)-4-[3-[5,7-difluoro-2-(4-fluorophenyl)-1H-indol-3-yl]propanoylamino]-5-oxo-pyrrolidin-3-yl]acetate] | > 1000
5 | O=C(CCc1c(-c2ccc(F)cc2)[nH]c2c(F)cc(F)cc12)N[C@H]1C[C@@H](CF)NC1=O [Compound 9] | > 1000
6 | O=C(CCc1c(-c2ccc(F)cc2)[nH]c2c(F)cc(F)cc12)N[C@H]1C[C@H](CF)NC1=O [Compound 10] | > 1000
7 | C[C@H]1CNC(=O)[C@H]1NC(=O)CCc1c(-c2ccc(F)cc2)[nH]c2c(F)cc(F)cc12 [Compound 11] | > 1000
8 | O=C(CCc1c(-c2ccc(F)cc2)[nH]c2c(F)cc(F)cc12)N[C@H]1C(=O)NC[C@@H]1O [Compound 12] | 250 to 1000
9 | O=C(CCc1c(-c2ccc(F)cc2)[nH]c2c(F)cc(F)cc12)N[C@H]1C(=O)NC[C@H]1O [Compound 15] | 250 to 1000
10 | O=C(CCc1c(-c2ccc(F)cc2)[nH]c2c(F)cc(F)cc12)NC1CC2(CC2)NC1=O (centres unmarked) [Compound 17] | > 1000
11 | Cc1ccc(-c2[nH]c3c(F)cc(F)cc3c2CCC(=O)N[C@@H]2C(=O)NC[C@H]2O)cc1 [Compound 22] | < 250
12 | Cc1ccc(-c2[nH]c3c(F)cc(F)cc3c2CCC(=O)N[C@H]2CCNC2=O)cc1 [Compound 23] | < 250
13 | Cc1ccc(-c2[nH]c3c(F)cc(F)cc3c2CCC(=O)N[C@@H]2CCNC2=O)cc1 [Compound 24] | < 250
14 | O=C(CCc1c(-c2ccccc2)[nH]c2c(F)cc(F)cc12)N[C@H]1CCNC1=O [Compound 25] | < 250
15 | Cc1cc(F)c2[nH]c(-c3ccc(F)cc3)c(CCC(=O)N[C@H]3CCNC3=O)c2c1 [Compound 31] | 250 to 1000
16 | O=C(CCc1c(-c2ccc(F)cc2)[nH]c2c(F)cc(Cl)cc12)N[C@H]1CCNC1=O [Compound 32] | < 250
17 | O=C(CCc1c(-c2ccc(F)cc2)[nH]c2c(F)cc(Cl)cc12)N[C@@H]1CCNC1=O [Compound 33] | 250 to 1000
18 | O=C(CCc1c(-c2ccc(F)cc2)[nH]c2c(Cl)cc(F)cc12)N[C@H]1CCNC1=O [Compound 34] | < 250
19 | O=C(CCc1c(-c2ccccc2)[nH]c2c(Cl)cc(F)cc12)N[C@@H]1C(=O)NC[C@H]1O [Compound 35] | < 250
20 | Cc1cc(F)cc2c(CCC(=O)N[C@H]3CCNC3=O)c(-c3ccc(F)cc3)[nH]c12 [Compound 38] | < 250
21 | Cc1cc(F)cc2c(CCC(=O)N[C@H]3CCNC3=O)c(-c3ccc(F)cc3)[nH]c12 [Compound 39] | 250 to 1000

Row | SMILES | IC50 [nM]
22 | COc1cc(F)cc2c(CCC(=O)N[C@H]3CCNC3=O)c(-c3ccc(F)cc3)[nH]c12 [Compound 41] | 250 to 1000
23 | O=C(CCc1c(-c2ccc(F)cc2)[nH]c2ccc(Cl)cc12)N[C@@H]1C(=O)NC[C@H]1O [Compound 45, 3-[5-chloro-2-(4-fluorophenyl)-1H-indol-3-yl]-N-[(3S,4R)-4-hydroxy-2-oxo-pyrrolidin-3-yl]propanamide] | < 250
24 | N#Cc1cccc(-c2[nH]c3ccc(F)cc3c2CCC(=O)N[C@H]2CCNC2=O)c1 [Compound 53] | > 1000
25 | COc1ccc2[nH]c(-c3ccc(F)cc3)c(CCC(=O)N[C@H]3CCNC3=O)c2c1 [Compound 56, 3-[2-(4-fluorophenyl)-5-methoxy-1H-indol-3-yl]-N-[(3S)-2-oxopyrrolidin-3-yl]propanamide] | > 1000
26 | O=C(CCc1c(-c2ccc(F)cc2)[nH]c2c(F)c(F)ccc12)N[C@H]1CCNC1=O [Compound 57] | 250 to 1000
27 | O=C(CCc1c(-c2ccccc2)[nH]c2c(F)cccc12)N[C@H]1CCNC1=O [Compound 60] | 250 to 1000
28 | C=Cc1cccc2c(CCC(=O)N[C@@H]3C(=O)NC[C@H]3O)c(-c3ccccc3)[nH]c12 [Compound 62, N-[(3S,4R)-4-hydroxy-2-oxo-pyrrolidin-3-yl]-3-(2-phenyl-7-vinyl-1H-indol-3-yl)propanamide] | < 250
29 | O=C(CCc1c(-c2ccccc2)[nH]c2c(C3CC3)cccc12)N[C@@H]1C(=O)NC[C@H]1O [Compound 63] | < 250
30 | O=C(CCc1c(-c2ccccc2)[nH]c2c(C3=CCOC3)cccc12)N[C@@H]1C(=O)NC[C@H]1O [Compound 64] | > 1000
31 | O=C(CCc1c(-c2ccccc2)[nH]c2c(C3CCOC3)cccc12)N[C@@H]1C(=O)NC[C@H]1O (some centres unmarked) [Compound 65] | 250 to 1000
32 | CC(C)(O)c1cccc2c(CCC(=O)N[C@@H]3C(=O)NC[C@H]3O)c(-c3ccccc3)[nH]c12 [Compound 66] | 250 to 1000
33 | C=C(C)c1cccc2c(CCC(=O)N[C@@H]3C(=O)NC[C@H]3O)c(-c3ccccc3)[nH]c12 [Compound 67] | 250 to 1000
34 | CC(C)c1cccc2c(CCC(=O)N[C@@H]3C(=O)NC[C@H]3O)c(-c3ccccc3)[nH]c12 [Compound 68] | 250 to 1000
35 | Cc1cccc2c(CCC(=O)N[C@@H]3C(=O)NC[C@H]3O)c(-c3ccccc3)[nH]c12 [Compound 69] | < 250
36 | Cc1cccc2c(CCC(=O)N[C@@H]3C(=O)NC[C@H]3O)c(-c3ccc(F)cc3)[nH]c12 [Compound 71] | < 250
37 | O=C(CCc1c(-c2ccccc2)[nH]c2c(Cl)cccc12)N[C@@H]1C(=O)NC[C@H]1O [Compound 74] | < 250
38 | COc1cccc2c(CCC(=O)N[C@H]3CCNC3=O)c(-c3ccc(F)cc3)[nH]c12 [Compound 77] | > 1000
39 | O=C(CCc1c(-c2ccc(F)cc2)[nH]c2c(F)c(F)c(F)cc12)N[C@@H]1C(=O)NC[C@H]1O [Compound 79] | < 250
40 | O=C(CCc1c(-c2ccc(F)cc2)[nH]c2cc(F)c(F)cc12)N[C@@H]1C(=O)NC[C@H]1O [Compound 81] | < 250
41 | Cc1c(F)ccc2c(CCC(=O)N[C@@H]3C(=O)NC[C@H]3O)c(-c3ccc(F)cc3)[nH]c12 [Compound 83] | < 250
